Test results as given in US20250170248A1, “SMARCA DEGRADERS AND USES THEREOF” (Kymera Therapeutics, Inc., priority 2021, published 2025).

Columns and labels:
Assay type in all cases: cell-based
SMARCA4 = biological target: T1, SMARCA4 (Homo sapiens, UniProt P51532); test: SMARCA4 Western blot degradation in MV4-11 cells; conditions: for Dmax: MV4-11, MV4-11 cells, read-out: SMARCA4 MSD MV411 degradation 24 h: average Dmax %; for Dmax / DC50: 24 h; for DC50: read-out: SMARCA4 MSD MV411 degradation 24 h: Mean external-Abs DC50
T1 construct: SMARCA2/SMARCA4 protein degradation selectivity in MV4-11 cells; endogenous in cells; host or cells: MV4-11
T1 sequence (P51532 whole entry): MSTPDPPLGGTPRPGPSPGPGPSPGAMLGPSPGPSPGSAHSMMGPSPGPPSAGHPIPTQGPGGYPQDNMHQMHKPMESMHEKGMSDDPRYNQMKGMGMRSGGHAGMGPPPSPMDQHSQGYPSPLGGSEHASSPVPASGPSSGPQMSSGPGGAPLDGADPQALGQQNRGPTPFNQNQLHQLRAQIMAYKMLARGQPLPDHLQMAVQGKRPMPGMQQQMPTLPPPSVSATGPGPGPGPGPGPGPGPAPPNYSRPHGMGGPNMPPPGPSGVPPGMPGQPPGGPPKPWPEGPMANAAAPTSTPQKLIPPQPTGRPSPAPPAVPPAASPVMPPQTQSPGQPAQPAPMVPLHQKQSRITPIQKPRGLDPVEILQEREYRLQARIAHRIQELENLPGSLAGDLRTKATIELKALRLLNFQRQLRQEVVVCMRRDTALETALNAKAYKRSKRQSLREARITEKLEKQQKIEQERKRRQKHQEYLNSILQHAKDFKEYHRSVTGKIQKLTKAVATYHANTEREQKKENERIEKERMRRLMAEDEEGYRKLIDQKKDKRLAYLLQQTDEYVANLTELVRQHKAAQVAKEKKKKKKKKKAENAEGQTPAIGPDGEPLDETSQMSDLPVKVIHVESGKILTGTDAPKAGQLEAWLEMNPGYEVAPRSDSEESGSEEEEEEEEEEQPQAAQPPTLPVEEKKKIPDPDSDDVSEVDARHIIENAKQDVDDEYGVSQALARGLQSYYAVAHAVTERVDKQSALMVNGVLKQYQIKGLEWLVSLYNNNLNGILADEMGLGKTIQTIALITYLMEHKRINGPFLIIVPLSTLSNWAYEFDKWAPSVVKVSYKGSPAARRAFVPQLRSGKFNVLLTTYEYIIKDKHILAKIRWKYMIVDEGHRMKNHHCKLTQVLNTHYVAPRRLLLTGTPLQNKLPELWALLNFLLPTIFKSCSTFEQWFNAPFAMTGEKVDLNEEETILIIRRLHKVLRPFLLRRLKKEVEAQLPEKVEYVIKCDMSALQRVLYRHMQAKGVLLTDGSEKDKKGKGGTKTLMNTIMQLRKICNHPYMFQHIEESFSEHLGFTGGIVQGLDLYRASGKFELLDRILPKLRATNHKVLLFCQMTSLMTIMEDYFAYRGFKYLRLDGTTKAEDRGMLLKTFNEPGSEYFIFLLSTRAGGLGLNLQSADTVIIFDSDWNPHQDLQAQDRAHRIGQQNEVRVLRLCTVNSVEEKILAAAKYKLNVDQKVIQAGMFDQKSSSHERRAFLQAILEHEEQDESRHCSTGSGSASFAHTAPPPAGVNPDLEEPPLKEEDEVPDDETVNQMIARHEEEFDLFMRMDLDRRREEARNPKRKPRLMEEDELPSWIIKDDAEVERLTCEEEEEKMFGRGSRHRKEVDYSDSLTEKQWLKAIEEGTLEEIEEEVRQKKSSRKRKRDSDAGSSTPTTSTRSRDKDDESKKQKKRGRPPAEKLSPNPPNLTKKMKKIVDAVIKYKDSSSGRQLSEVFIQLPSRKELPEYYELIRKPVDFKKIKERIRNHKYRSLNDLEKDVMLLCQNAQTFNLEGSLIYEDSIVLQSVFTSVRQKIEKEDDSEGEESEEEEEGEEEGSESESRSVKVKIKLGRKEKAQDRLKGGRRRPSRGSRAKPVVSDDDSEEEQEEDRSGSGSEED
In short: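 MV4-11 cells (4×10^6/well) treated with compound for 24 h, lysed in RIPA with protease/phosphatase inhibitors, and SMARCA2, SMARCA4 and beta-actin detected by Western blot with LI-COR readout. Values reported as letter-coded DC50, 24 h Dmax % and SMARCA2/4 selectivity fold.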

SMARCA2 [1] = biological target: T2, SMARCA2 (Homo sapiens, UniProt P51531); test: MSD SMARCA2 degradation in A549 cell line; conditions: for Dmax: A549, A549 cells; for Dmax / DC50: 24 h; for DC50: read-out: SMARCA2 MSD A549 degradation 24 h: Average external-Abs DC50
T2 sequence (P51531 whole entry): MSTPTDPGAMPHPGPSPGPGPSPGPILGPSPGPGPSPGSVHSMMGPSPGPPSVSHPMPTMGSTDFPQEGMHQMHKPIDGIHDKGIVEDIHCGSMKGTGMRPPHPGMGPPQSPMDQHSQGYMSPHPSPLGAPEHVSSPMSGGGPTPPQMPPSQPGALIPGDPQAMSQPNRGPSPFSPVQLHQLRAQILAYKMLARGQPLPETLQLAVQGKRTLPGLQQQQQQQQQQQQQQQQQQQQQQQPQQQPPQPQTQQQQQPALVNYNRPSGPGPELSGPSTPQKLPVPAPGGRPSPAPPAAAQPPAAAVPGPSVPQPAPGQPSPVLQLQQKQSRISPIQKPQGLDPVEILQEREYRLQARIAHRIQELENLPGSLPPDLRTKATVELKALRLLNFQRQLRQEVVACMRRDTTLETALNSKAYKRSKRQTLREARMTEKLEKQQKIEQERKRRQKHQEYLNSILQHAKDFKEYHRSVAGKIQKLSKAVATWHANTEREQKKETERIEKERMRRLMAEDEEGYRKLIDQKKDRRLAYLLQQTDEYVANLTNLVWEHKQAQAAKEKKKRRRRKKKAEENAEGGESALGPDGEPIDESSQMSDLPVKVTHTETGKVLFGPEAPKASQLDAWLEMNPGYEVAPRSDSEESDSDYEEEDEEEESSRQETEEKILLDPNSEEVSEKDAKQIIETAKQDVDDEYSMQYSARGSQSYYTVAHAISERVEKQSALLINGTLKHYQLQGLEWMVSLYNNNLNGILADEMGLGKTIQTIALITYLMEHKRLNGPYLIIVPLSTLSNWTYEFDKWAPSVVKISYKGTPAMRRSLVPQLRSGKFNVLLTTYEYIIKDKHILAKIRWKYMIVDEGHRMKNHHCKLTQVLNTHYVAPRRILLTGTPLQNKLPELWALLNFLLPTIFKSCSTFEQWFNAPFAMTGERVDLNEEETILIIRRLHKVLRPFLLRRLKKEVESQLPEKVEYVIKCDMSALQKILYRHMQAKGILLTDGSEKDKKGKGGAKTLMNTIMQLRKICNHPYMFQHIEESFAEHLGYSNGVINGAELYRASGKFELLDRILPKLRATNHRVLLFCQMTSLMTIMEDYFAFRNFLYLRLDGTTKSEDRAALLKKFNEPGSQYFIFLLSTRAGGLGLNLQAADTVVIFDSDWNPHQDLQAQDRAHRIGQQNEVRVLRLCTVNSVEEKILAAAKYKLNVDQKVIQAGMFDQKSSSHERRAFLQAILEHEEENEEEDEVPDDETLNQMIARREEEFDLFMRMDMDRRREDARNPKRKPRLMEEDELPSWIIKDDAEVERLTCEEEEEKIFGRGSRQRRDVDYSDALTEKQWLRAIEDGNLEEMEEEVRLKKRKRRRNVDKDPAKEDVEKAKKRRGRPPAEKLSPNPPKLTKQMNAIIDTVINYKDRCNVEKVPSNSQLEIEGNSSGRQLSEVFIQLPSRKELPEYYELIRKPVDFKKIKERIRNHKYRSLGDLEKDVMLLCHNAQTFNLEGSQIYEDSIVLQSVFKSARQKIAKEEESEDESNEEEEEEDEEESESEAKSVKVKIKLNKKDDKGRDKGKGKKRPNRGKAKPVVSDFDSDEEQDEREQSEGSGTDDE
In short: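 A549 cells treated 24 h with compound, 3-fold series from 1000 nM. Lysates captured on MSD plates and SMARCA2 quantified with anti-SMARCA2 and SULFO-TAG secondary antibodies (electrochemiluminescence). DC50 and Dmax (% degradation at 24 h) reported as letter bins.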

SMARCA2 [2] = biological target: T2, SMARCA2; test: SMARCA2 Western blot degradation in MV4-11 cells; parameters: SMARCA2/SMARCA4 protein degradation selectivity in MV4-11 cells; endogenous in cells; host or cells: MV4-11; conditions: for Dmax: MV4-11, MV4-11 cells, read-out: SMARCA2 MSD MV411 degradation 24 h: average Dmax %; for DC50: read-out: SMARCA2 MSD MV411 degradation 24 h: Mean external-Abs DC50; for Selectivity in MV411: SMARCA2/4 selectivity

Compound	Dmax (SMARCA4) [%]	DC50 (SMARCA4; MV4-11 cells) [nM]	Dmax (SMARCA2 [1]) [%]	DC50 (SMARCA2 [1]; A549 cells) [nM]	Dmax (SMARCA2 [2]; 24 h) [%]	DC50 (SMARCA2 [2]; MV4-11 cells, 24 h) [nM]	Selectivity in MV411 (SMARCA2 [2]; MV4-11 cells)	SMARCA4 MSD MV411 degradation 24 h: average Dmax % (SMARCA4; MV4-11 cells)	SMARCA2 MSD A549 degradation 24 h: Average Dmax % (SMARCA2 [1]; A549 cells)	SMARCA2 MSD MV411 degradation 24 h: average Dmax % (SMARCA2 [2]; MV4-11 cells, 24 h)
C#Cc1ccc(CNC(=O)[C@@H]2C[C@@H](O)CN2C(=O)[C@@H](NC(=O)[C@H]2CC3(C2)C[C@H](c2cnc(N4CCC(N5CCN6c7cc(-c8ccccc8O)nnc7NC[C@H]6C5)CC4)nc2)C3)C(C)(C)C)cc1 (single isomer, unassigned) [I-301]	> 90	10 to 100	> 90	10 to 50	> 90	1 to 10	C (C (10-100 fold))			
Cc1ncsc1-c1ccc(CNC(=O)[C@@H]2C[C@@H](O)CN2C(=O)[C@@H](NC(=O)C2(F)CC2)C(C)(C)C)c(O[C@H]2CC[C@H](N3CCC(N4CCC(c5cnc(N6CCc7[nH]c8nnc(-c9ccccc9O)cc8c7[C@@H]6C)nc5)CC4)CC3)CC2)c1 (single isomer, unassigned) [I-47]	> 90	1 to 10	> 90	> 100	> 90	1 to 10	D (D (<10 fold))			
Cn1nccc1-c1ccc(CNC(=O)[C@@H]2C[C@@H](O)CN2C(=O)[C@@H](NC(=O)[C@H]2CC[C@@H](c3ccc(-c4cnc(N5CCN6c7cc(-c8ccccc8O)nnc7NC[C@H]6C5)nc4)cc3)CC2)C(C)(C)C)cc1 (single isomer, unassigned) [I-88]	> 90	1 to 10	> 90	< 10	> 90	< 1	C (C (10-100 fold))			
C#Cc1ccc(CNC(=O)[C@@H]2C[C@@H](O)CN2C(=O)[C@@H](NC(=O)N2CC3(CC(c4cnc(N5CCC(N6CCN7c8cc(-c9ccccc9O)nnc8NC[C@H]7C6)CC5)nc4)C3)C2)C(C)(C)C)cc1 [I-276]	> 90	10 to 100	> 90	< 10	> 90	1 to 10	C (C (10-100 fold))			
C#Cc1ccc(CNC(=O)[C@@H]2C[C@@H](O)CN2C(=O)[C@@H](NC(=O)N2CC3(CC(N4CCC(N5CCC(N6CCc7[nH]c8nnc(-c9ccccc9O)cc8c7[C@H]6C)CC5)CC4)C3)C2)C(C)(C)C)cc1 (single isomer, unassigned) [I-179]	50 to 70	> 100	> 90	> 100	70 to 90	10 to 100	B (B (>100-500 fold))			
Cc1ncsc1-c1ccc(CNC(=O)[C@@H]2C[C@@H](O)CN2C(=O)C(c2cc(N3CCC4(CC3)CC(N3CCC(c5cnc(N6CCc7[nH]c8nnc(-c9ccccc9O)cc8c7[C@H]6C)nc5)CC3)C4)no2)C(C)C)cc1 (stereo partly drawn) [I-13]	> 90	10 to 100	> 90	10 to 50	> 90	1 to 10	C (C (10-100 fold))			
C#Cc1ccc(CNC(=O)[C@@H]2C[C@@H](O)CN2C(=O)[C@@H](NC(=O)[C@H]2CC3(C2)C[C@H](N2CCN(C(=O)CCN4CCN5c6cc(-c7ccccc7O)nnc6NC[C@H]5C4)CC2)C3)C(C)(C)C)cc1 (stereo partly drawn) [I-274]	> 90	10 to 100	> 90	> 100	> 90	1 to 10	C (C (10-100 fold))			
Cc1ncsc1-c1ccc(CNC(=O)[C@@H]2C[C@@H](O)CN2C(=O)[C@@H](NC(=O)N2CC3(CC(N4CCC(c5cnc(N6CCc7[nH]c8nnc(-c9ccccc9O)cc8c7[C@H]6C)nc5)CC4)C3)C2)C(C)(C)C)cc1 [I-58, N—((S)-1-((2S,4R)-4-hydroxy-2-((4-(4-methylthiazol-5-yl)benzyl)carbamoyl)pyrrolidin-1-yl)-3,3-dimethyl-1l-oxobutan-2-yl)-6-(4-(2-((R)-3-(2-hydroxyphenyl)-5-methyl-7,8-dihydro-5H-pyrido [3′, 4′: 4,5]pyrrolo [2,3-c]pyridazin-6(9H)-yl)pyrimidin-5-yl)piperidin-1-yl)-2-azaspiro[3.3]heptane-2-carboxamide]	50 to 70	> 100	> 90	10 to 50	70 to 90	1 to 10	B (B (>100-500 fold))			
C#Cc1ccc(CNC(=O)[C@@H]2C[C@@H](O)CN2C(=O)[C@@H](NC(=O)N2CC3(CC(N4CCC(c5cnc(N6CCc7[nH]c8nnc(-c9ccccc9O)cc8c7[C@@H]6CO)nc5)CC4)C3)C2)C(C)(C)C)cc1 [I-147]	70 to 90	10 to 100	> 90	50 to 100	> 90	1 to 10	D (D (<10 fold))			
C#Cc1ccc([C@H](C)NC(=O)[C@@H]2C[C@@H](O)CN2C(=O)C(c2cc(N3CCC(CN4CCC(N5CCC(N6CCN7c8cc(-c9ccccc9O)nnc8NC[C@H]7C6)CC5)CC4)CC3)no2)C(C)C)c(Cl)c1 (stereo partly drawn) [I-324]	< 50	> 100	< 50	> 100	< 50	> 100	C (C (10-100 fold))			
C#Cc1ccc(CNC(=O)[C@@H]2C[C@@H](O)CN2C(=O)[C@@H](NC(=O)N2CC3(CC(N4CCC(N5CCC(N6CCc7[nH]c8nnc(-c9ccccc9O)cc8c7[C@@H]6C)CC5)CC4)C3)C2)C(C)(C)C)c(F)c1 [I-182]	70 to 90	> 100	> 90	> 100	50 to 70	10 to 100	D (D (<10 fold))			
Cc1ncsc1-c1ccc(CNC(=O)[C@@H]2C[C@@H](O)CN2C(=O)[C@@H](NC(=O)[C@H]2CCC3(CC2)C[C@H](N2CCC4(CC2)CN(C(=O)N2CCN5c6cc(-c7ccccc7O)nnc6NC[C@H]5C2)CCO4)C3)C(C)(C)C)cc1 (single isomer, unassigned) [I-93]		> 100		> 100		10 to 100	C (C (10-100 fold))	C (C (50-70% degradation))	A (A (>90% degradation))	B (B (>70-90% degradation))
C#CCOc1cc(C(C(=O)N2C[C@H](O)C[C@H]2C(=O)NCc2ccc(-c3scnc3C)cc2O[C@H]2CC[C@H](N3CCC(c4cnc(N5CCc6[nH]c7nnc(-c8ccccc8O)cc7c6[C@H]5C)nc4)CC3)CC2)C(C)C)on1 (single isomer, unassigned) [I-38]	> 90	10 to 100	> 90	10 to 50	> 90	< 1	C (C (10-100 fold))			
C#Cc1ccc(CNC(=O)[C@@H]2C[C@@H](O)CN2C(=O)[C@@H](NC(=O)N2CC3(CC(N4CCC(N5CCC(N6CCN7c8cc(-c9ccccc9O)nnc8NC[C@H]7C6)CC5)CC4)C3)C2)C(C)(C)C)cc1 [I-215]	70 to 90	10 to 100	> 90	50 to 100	> 90	1 to 10	C (C (10-100 fold))			
C#CCOc1cc(C(C(=O)N2C[C@H](O)C[C@H]2C(=O)NCc2ccc(-c3scnc3C)cc2O[C@H]2CC[C@@H](N3CCC(c4cnc(N5CCc6[nH]c7nnc(-c8ccccc8O)cc7c6[C@H]5C)nc4)CC3)CC2)C(C)C)on1 (single isomer, unassigned) [I-37]	> 90	< 1	> 90	< 10	> 90	< 1	D (D (<10 fold))			
